Measurements as given in the NIST ThermoML archive (doi:10.1016/j.jct.2011.09.008).
Numbers after ± are expanded uncertainties.

Columns and labels:
[1] = 101 kPa, Liquid, Sing-around technique in a fixed-path interferometer
[2] = xn = mol fraction of the nth substance listed; settings: 283.15 K; 101 kPa; Liquid; Sing-around technique in a fixed-path interferometer; x2 = 0

Row | speed of sound ([1]; 283.15 K) [m/s] | speed of sound ([1]; 288.15 K) [m/s] | speed of sound ([1]; 293.15 K) [m/s] | speed of sound ([1]; 298.15 K) [m/s] | speed of sound ([1]; 303.15 K) [m/s] | speed of sound [2] [m/s] | SMILES
1 | 1301.9 ± 1.5 | 1283.2 ± 1.5 | 1264.5 ± 1.5 | 1245.8 ± 1.5 | 1227.3 ± 1.5 | – | CCCOCC(C)O (stereo unspecified) [1-propoxy-2-propanol]
2 | – | – | – | – | – | 1447.3 ± 1.2 | O [water] + CCCOCC(C)O
